A short description of assay [1]: Inhibition of Influenza A virus H3N2 Neuraminidase.
Assay [2] has as its system Rattus norvegicus. Kind of assay: Antiinflammatory activity in Sprague-Dawley rat assessed as inhibition of carrageenan-induced edema at 10 mg/kg, po pretreated for 1 hr followed by carrageenan challenge and measured after 4 hrs by mercury plethysmometer relative to control. It is filed as functional. In general terms: The carrageenan paw model is a standard test of acute inflammation.

Assay [3] relates to Aspergillus niger. Kind of assay: Antifungal activity against Aspergillus niger assessed as diameter of zone inhibition at 0.5% incubated for 24 hrs by stiff plate agar diffusion method. It is filed as functional. (In general: A growth-free zone around the sample is the usual read-out of agar diffusion tests.)
The test system of assay [4] is Escherichia coli. In words: Antibacterial activity against Escherichia coli assessed as diameter of zone inhibition at 0.5% incubated for 24 hrs by stiff plate agar diffusion method. It is filed as functional.
The subject of assay [5] is DU-145. In words: Antiproliferative activity against human DU145 after 48 hrs by MTT assay. Format: functional. The note with it: DU-145, 48 h. (In general: Formazan colour is commonly taken as a measure of viable cells.)
For assay [6], the system named is A549. In words: Antiproliferative activity against human A549 after 48 hrs by MTT assay. It is filed as functional. The note with it: A549, 48 h.
Assay [7] has as its system MCF7. In words: Antiproliferative activity against human MCF7 after 48 hrs by MTT assay. It is filed as functional. The note with it: MCF7, 48 h.
Assay [8] has as its system HCT-15. In words: Antiproliferative activity against human HCT15 after 48 hrs by MTT assay. Format: functional. The note with it: HCT-15, 48 h.
In assay [9] the test system is HCT-116. In words: Antiproliferative activity against human HCT116 after 48 hrs by MTT assay. Format: functional. The conditions noted are these: HCT-116, 48 h.
Assay [10] has as its system MDA-MB-453. Kind of assay: Antiproliferative activity against human MDA-MB-453 after 48 hrs by MTT assay. Format: functional. The conditions noted are these: MDA-MB-453, 48 h.
Assay [11] deals with HT-29. In words: Antiproliferative activity against human HT-29 after 48 hrs by MTT assay. Format: functional. The note with it: HT-29, 48 h.
Assay [12] deals with BT-549. Kind of assay: Antiproliferative activity against human BT549 after 48 hrs by MTT assay. It is filed as functional. The note with it: BT-549, 48 h.
Assay [13] concerns Bacillus subtilis. In words: Antibacterial activity against Bacillus subtilis ATCC 6633 assessed as diameter of zone inhibition at 30 ug/ml. The conditions noted are these: read-out: DIZ. It is filed as functional.
For assay [14], the system named is Staphylococcus aureus. In words: Antibacterial activity against Staphylococcus aureus ATCC 25923 assessed as diameter of zone inhibition at 30 ug/ml. It is filed as functional. The note with it: read-out: DIZ.
Assay [15] concerns Escherichia coli. Kind of assay: Antibacterial activity against Escherichia coli ATCC 25922 assessed as diameter of zone inhibition at 30 ug/ml. It is filed as functional. The conditions noted are these: read-out: DIZ.
For assay [16], the system named is Aspergillus niger. Kind of assay: Antifungal activity against Aspergillus niger assessed as diameter of zone inhibition at 0.1% incubated for 24 hrs by stiff plate agar diffusion method. It is filed as functional.
The test system of assay [17] is Aspergillus niger. In words: Antifungal activity against Aspergillus niger incubated for 24 to 72 hrs by Serial dilution method. It is filed as functional.
Assay [18] deals with Bacillus subtilis. Kind of assay: Antibacterial activity against Bacillus subtilis ATCC 6633 assessed as diameter of zone inhibition at 100 ug/ml. Format: functional. The note with it: read-out: DIZ.
Assay [19] concerns Staphylococcus aureus. Kind of assay: Antibacterial activity against Staphylococcus aureus ATCC 25923 assessed as diameter of zone inhibition at 100 ug/ml. It is filed as functional. The note with it: read-out: DIZ.
For assay [20], the system named is Escherichia coli. Kind of assay: Antibacterial activity against Escherichia coli ATCC 25922 assessed as diameter of zone inhibition at 100 ug/ml. It is filed as functional. The note with it: read-out: DIZ.
The test system of assay [21] is Human alphaherpesvirus 1. In words: Antiviral activity against Herpes simplex virus 1 at 50 ug/10^5. It is filed as functional.
In assay [22] the test system is Human alphaherpesvirus 1. Kind of assay: Antiviral activity against Herpes simplex virus 1 at 20 ug/10^5. Format: functional.
Assay [23] deals with Rhodococcus fascians. In words: Antibacterial activity against Mycobacterium luteum assessed as diameter of zone inhibition at 0.5% incubated for 24 hrs by stiff plate agar diffusion method. It is filed as functional, Rhodococcoides fascians.
Assay [24] deals with Staphylococcus aureus. In words: Antibacterial activity against Staphylococcus aureus assessed as diameter of zone inhibition at 0.5% incubated for 24 hrs by stiff plate agar diffusion method. Format: functional.
The test system of assay [25] is Rattus norvegicus. In words: Antiinflammatory activity in gamma irradiated rat assessed as reduction in COX-2 level in liver tissue homogenates at 150 mg/kg, ip administered once daily for 7 consecutive days by ELISA (reference value: 89.50 +/- 2.617 ng/ml). Format: functional.
Assay [26] concerns Rattus norvegicus. In words: Antiinflammatory activity in gamma irradiated rat assessed as reduction in serum TNFalpha level at 150 mg/kg, ip administered once daily for 7 consecutive days by ELISA (reference value: 105.07 +/- 3.925 pg/ml). Format: functional.
The test system of assay [27] is Rattus norvegicus. Kind of assay: Antiinflammatory activity in gamma irradiated rat assessed as reduction in serum IL-6 level at 150 mg/kg, ip administered once daily for 7 consecutive days by ELISA (reference value: 103.87 +/- 3.273 pg/ml). Format: functional.
The subject of assay [28] is Rattus norvegicus. Kind of assay: Antiinflammatory activity in gamma irradiated rat assessed as reduction in NFkappaB level in liver tissue homogenates at 150 mg/kg, ip administered once daily for 7 consecutive days by ELISA (reference value: 258.33 +/- 4.216 pg/ml). It is filed as functional.

≈ marks a conversion by molar mass, not a printed value.

One may read the IC50 as the concentration that gives 50% inhibition. Lower therefore signals inhibition by little substance. `O=CC1CN(c2nc(-c3c[nH]c4ccccc34)nc3sc4c(c23)CCCC4)N=C1c1ccccc1` (stereo not drawn) yielded an IC50 in assay [1] of 0.089 µM.
What is called inhibition in vivo is the share of the control response that was lost under treatment. Regarding `COc1ccc2c(c1)c(CC(=O)O)c(C)n2C(=O)c1ccc(Cl)cc1` [INDOMETHACIN], the inhibition in vivo at 10 mg/kg in assay [2] was 49.1%.
Turning to `Cc1sc2nc[nH]c(=[Se])c2c1C`, the “diameter of the inhibition zone (DIZ)” value in assay [3] is 12 mm; in assay [4], 14.7 mm.
Turning to `O=C1CCC(=O)N1Nc1nc(-c2c[nH]c3ccccc23)nc2sc3c(c12)CCCC3`, it took 0.021 µM to reach half-maximal inhibition in assay [1] (IC50).
Usually GI50 stands for the concentration that inhibits growth by half. Low readings indicate more potent growth inhibition, high ones less potent growth inhibition. On to `O=C(/C=C/c1cccc(C(F)(F)F)c1)Nc1cccc(Nc2ncnc3sccc23)c1`, for which the GI50 in assay [5] came out at 5.4 µM; in [6], 4.6 µM; in [7], 0.8 µM; in assay [8] it was 5.1 µM; in [9], 5.8 µM; in assay [10], 0.9 µM. Besides, the GI50 in assay [11] is > 10 µM; in [12], 3.1 µM.
In assay [1], `C/C(=N\Nc1nc(-c2c[nH]c3ccccc23)nc2sc3c(c12)CCCC3)c1ccccc1` registered a 50% inhibitory concentration (IC50) of 0.237 µM.
Consider `CN[C@@H]1[C@H](O[C@H]2[C@H](O[C@H]3[C@H](O)[C@@H](O)[C@H](N=C(N)N)[C@@H](O)[C@@H]3N=C(N)N)O[C@@H](C)[C@]2(O)C=O)O[C@@H](CO)[C@H](O)[C@H]1O` [STREPTOMYCIN], for which the zone of inhibition at 30 µg/mL was 17 mm in [13], 15 mm in assay [14] and 16 mm in [15].
The term MIC denotes the least concentration at which growth counts as inhibited. Low values mean greater potency, high ones weaker potency. As to `CCCCCc1sc2nc[nH]c(=[Se])c2c1CCCCC`, the “diameter of the inhibition zone (DIZ)” value worked out at 12 mm in assay [16], 22 mm in assay [3] and 14 mm in assay [4]. In assay [17], the MIC was determined as 31.2 µg/mL (≈ 87.8 µM).
For `Cc1c(-c2nnc(-c3ccccc3)o2)sc2c1c(=O)n(-c1ccccc1)c(=O)n2Cc1nc(-c2ccccc2Cl)no1`, the zone of inhibition at 100 µg/mL in [18] stood at 17 mm; in [19] it was 15 mm; in assay [20] it was 14 mm.
Regarding `Cc1ccc([N+](=O)[O-])c(C(=O)Nc2cccc(Nc3ncnc4sccc34)c2)c1`, the GI50 in [5] is 7.5 µM; in assay [6], 8.6 µM; in assay [7], 3.3 µM; in [8] it was 3.6 µM; in assay [9], 3.5 µM; in [10], 8.2 µM. Also, the GI50 in assay [11] and in assay [12] was > 10 µM throughout.
Take `Cc1nc(SCCO)c2c3c(sc2n1)CCc1ccccc1-3`: the Activity in assay [21] worked out at 75%; in [22], 40%.
On to `CCOC(=O)CSc1ncnc2sc(CC)c(CC)c12`, for which it took 31.2 µg/mL (≈ 101 µM) to inhibit growth in [17] (MIC).
Consider `CCc1sc2ncnc(SCC(=O)NS(=O)(=O)c3ccc(Cl)cc3)c2c1CC`, for which the entries for the “diameter of the inhibition zone (DIZ)” value in [23] and in [24] were 17 mm and 12 mm, respectively.
In the case of `CCOC(=O)c1sc2ncnc(N[C@@H](CCSC)C(=O)O)c2c1C`, in assay [25], the “COX-2 level in liver homogenate” value is 28.5 ng/mL. Besides, the “Serum TNFalpha level” value in [26] came to 38.5 pg/mL. Moreover, in assay [27], the “Serum IL-6 level” value turned out to be 45.72 pg/mL. The “NFkappaB level in liver tissue” value in assay [28] stood at 66.17 pg/mL.
Turning to `O=C(Nc1cccc(Nc2ncnc3sccc23)c1)c1ccc(F)cc1`, the GI50 is 9.2 µM in assay [5]; 4.3 µM in assay [6]; 1.6 µM in assay [7]; > 10 µM in assay [8]; 10.2 µM in [9]; > 10 µM in assay [10]. Also, the GI50 is > 10 µM in [11] and 1.3 µM in assay [12].
On to `CCOC(=O)c1sc2ncnc(NCC(=O)O)c2c1C`, for which the “COX-2 level in liver homogenate” value in assay [25] came to 31.17 ng/mL. The “Serum TNFalpha level” value in assay [26] was 48.32 pg/mL. Moreover, the “Serum IL-6 level” value in [27] was 46.53 pg/mL. Also, the “NFkappaB level in liver tissue” value in assay [28] turned out to be 89.83 pg/mL.

The values above are taken from ChEMBL document CHEMBL4342407, “Thieno[2,3-d]pyrimidine as a promising scaffold in medicinal chemistry: Recent advances” (Bioorg Med Chem, 2019).
